Test results: ChEMBL document CHEMBL3868608, “Discovery of 1,3-diethyl-7-methyl-8-(phenoxymethyl)-xanthine derivatives as novel adenosine A1 and A2A receptor antagonists” (Bioorg Med Chem Lett, 2016)

Legend:
Adenosine receptor A1 [1] = target: T1, Adenosine receptor A1 (Rattus norvegicus, UniProt P25099); assay: Displacement of [3H]DPCPX from adenosine receptor A1 in Sprague-Dawley rat whole brain cell membranes after 60 mins by liquid scintillation counting
T1 sequence (P25099 whole entry): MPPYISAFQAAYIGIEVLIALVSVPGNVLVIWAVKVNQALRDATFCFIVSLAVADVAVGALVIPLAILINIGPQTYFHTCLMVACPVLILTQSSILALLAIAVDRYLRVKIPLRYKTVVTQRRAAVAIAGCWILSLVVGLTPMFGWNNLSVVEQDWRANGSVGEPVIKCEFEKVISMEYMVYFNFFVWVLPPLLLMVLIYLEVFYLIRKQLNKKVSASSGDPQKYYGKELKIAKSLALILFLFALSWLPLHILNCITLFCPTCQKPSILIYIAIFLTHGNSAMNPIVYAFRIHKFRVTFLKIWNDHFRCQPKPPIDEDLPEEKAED

Adenosine receptor A2a [2] = target: T2, Adenosine receptor A2a (Rattus norvegicus, UniProt P30543); assay: Displacement of [3H]NECA from adenosine receptor A2A in Sprague-Dawley rat striatal membranes after 60 mins by liquid scintillation counting; set-up: species or system Striatum, Membrane
brain = assay: Selectivity index, ratio of Ki for adenosine receptor A2A in Sprague-Dawley rat striatal membranes to Ki for adenosine receptor A1 in Sprague-Dawley rat whole brain cell membranes; type: cell-based
Adenosine receptor A1 [3] = target: T1, Adenosine receptor A1; assay: Displacement of [3H]DPCPX from adenosine receptor A1 in Sprague-Dawley rat whole brain membranes after 60 mins in presence of GTP by liquid scintillation counting method; set-up: species or system Membrane
Adenosine receptor A2a [4] = target: T2, Adenosine receptor A2a; assay: Displacement of [3H]NECA from adenosine receptor A2A in rat striatal membranes

T2 sequence (P30543 whole entry): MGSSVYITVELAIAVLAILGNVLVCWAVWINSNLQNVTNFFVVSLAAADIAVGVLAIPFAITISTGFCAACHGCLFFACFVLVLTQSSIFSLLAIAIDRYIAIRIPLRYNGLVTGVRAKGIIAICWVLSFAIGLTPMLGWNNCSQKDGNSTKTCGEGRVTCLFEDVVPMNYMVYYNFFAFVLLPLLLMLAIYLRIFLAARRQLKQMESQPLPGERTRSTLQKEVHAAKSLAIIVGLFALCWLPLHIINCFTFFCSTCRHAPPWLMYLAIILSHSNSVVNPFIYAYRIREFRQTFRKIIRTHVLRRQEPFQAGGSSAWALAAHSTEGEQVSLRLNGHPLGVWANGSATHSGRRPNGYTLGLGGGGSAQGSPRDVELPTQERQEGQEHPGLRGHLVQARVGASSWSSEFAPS

| SMILES | Ki (Adenosine receptor A1 [1]) [nM] | Ki (Adenosine receptor A2a [2]) [nM] | Ratio Ki (brain) | Ki (Adenosine receptor A1 [3]) [nM] | Ki (Adenosine receptor A2a [4]) [nM] |
| --- | --- | --- | --- | --- | --- |
| CCn1c(=O)c2c(nc(COc3ccc(Cl)cc3)n2C)n(CC)c1=O | 974 | 1040 | 1.1 | – | – |
| CCn1c(=O)c2c(nc(COc3ccc(C)cc3)n2C)n(CC)c1=O | 1420 | 1300 | 0.9 | – | – |
| Cn1c(=O)c2c(nc(COc3ccc(F)cc3)n2C)n(C)c1=O | 9190 | 2570 | 0.3 | – | – |
| CCn1c(=O)c2c(nc(COc3ccc(Br)cc3)n2C)n(CC)c1=O | 264 | 1360 | – | 267 | – |
| CCn1c(=O)c2c(nc(COc3ccc(OC)cc3)n2C)n(CC)c1=O | 1220 | 237 | – | – | 237 |
| COc1ccc(OCc2nc3c(c(=O)n(C)c(=O)n3C)n2C)cc1 | 4670 | 2400 | 0.5 | – | – |
| Cn1c(=O)c2c(nc(COc3ccc(Br)cc3)n2C)n(C)c1=O | 3690 | 1730 | 0.5 | – | – |
| Cn1c(=O)c2c(nc(COc3ccc(Cl)cc3)n2C)n(C)c1=O | 5560 | 940 | 0.2 | – | – |
| CCn1c(=O)c2c(nc(COc3ccc(F)cc3)n2C)n(CC)c1=O | 1230 | 841 | 0.7 | – | – |
| CCn1c(=O)c2c(nc(COc3ccccc3)n2C)n(CC)c1=O | – | – | – | 892 | – |
| CCn1c(=O)c2c(ncn2C)n(CC)c1=O | 5610 | 2690 | 0.5 | – | – |
| Cc1ccc(OCc2nc3c(c(=O)n(C)c(=O)n3C)n2C)cc1 | 6760 | 3640 | 0.5 | – | – |
